MyoD reporter activity data for 2 substances are collected here from US20250250545A1, “MSCS AND EXTRACELLULAR VESICLES” (EXOSTEM BIOTEC LTD., priority 2021, published 2025).

The assay has as its system AD-MSCs. The assay can be described thus: MyoD reporter (luciferase) in AD-MSCs, myogenic differentiation. The conditions noted are these: 10^8 EVs per ml, with or without IGF, HGF, PDGF, versus untreated control. Type of assay: cell-based, human. On the procedure:
The effects of muscle cell derived extracellular vesicles (EVs) on the myogenic differentiation of MSCs was analyzed using a myoD reporter tagged to luciferase. Human satellite cells, myotubes and fibroblasts were grown in culture and EVs were isolated from each. MSCs were isolated from adipose tissue (AD-MSCs) and were transfected with the MyoD reporter. The cells grown in culture were treated with EVs (10^8/ml) for 5 days and the luciferase activity was determined. […] Thus, the vesicles from these two cell types are effective at inducing myogenic differentiation.
Next, EVs were compared to the use of growth factors and the effect of combining EVs with growth factors on myogenic differentiation was tested. The same MyoD reporter was employed and MSCs were cultured with 10^8 EVs (from satellite cells or fibroblasts) per ml of culture media. A no EV control was also performed. The EVs were also added in the presence of three different growth factors, IGF, HGF and PDGF or in the combined presence of all three growth factors. […]
Finally, human primary myotubes were growth in culture and EVs and membrane-bound vesicles (MBVs) were harvested every 3 days. […] The vesicles were added to the culture of MSCs (adipose derived, AD; or chorionic placenta derived, CH) at a concentration of 10^8 per ml of culture and myogenic differentiation was again monitored with a MyoD reporter. […]

As for HGF: hepatocyte growth factor, the MyoD reporter activity entry is “less than a doubling of reporter activity”.
On to PDGF, for which the MyoD reporter activity entry is given as “less than a doubling of reporter activity”.
